Results as given in ChEMBL document CHEMBL1150468, “Sch 53823 and Sch 53825, novel fungal metabolites with phospholipase D inhibitory activity” (Bioorg Med Chem Lett, 1996).

assay: In vitro inhibitory activity in the fMLP-stimulated phospholipase (PLD) assay

Row | IC50 [µM] | SMILES
1 | 24 | Oc1cccc2c1[C@@H](O)[C@H]1O[C@H]1C21Oc2cccc3cccc(c23)O1
2 | 19 | Oc1c(Cl)ccc2c1[C@@H](O)[C@H]1O[C@H]1C21Oc2cccc3cccc(c23)O1
3 | > 50 | CC(=O)Oc1c(Cl)ccc2c1[C@@H](OC(C)=O)[C@H]1O[C@H]1C21Oc2cccc3cccc(c23)O1
4 | 17 | CC(=O)Oc1cccc2c1[C@@H](OC(C)=O)[C@H]1O[C@H]1C21Oc2cccc3cccc(c23)O1
